According to patent US20260306526A1, “COMBINATION THERAPY FOR BACTERIAL INFECTIONS COMPRISING ZINC-CHELATOR, BETA-LACTAM ANTIBIOTIC AND SERINE BETA-LACTAMASE INHIBITOR” (priority 2023, published 2026):
“And” between values parts separate entries of the source, which are not always exact repeats. Equal values may be shown once.

Key:
Type in all cases: cell-based
[1] = tested on: Acinetobacter baumannii ST25; experiment: MIC determination, fixed concentration of sBLI (Example 10); details: with AMP and SUL 16 μg/mL, NDM-1, OXA-58, OXA-64, OXA-10, VEB-21, ADC-26, caMHB, 29.4 μM Zn2+
Description: (§1) Antimicrobial susceptibility testing (AST) by broth microdilution (MIC determination) was performed according to The European Committee on Antimicrobial Susceptibility Testing (EUCAST) guidelines (see Reading guide for broth microdilution Version 5.0, 2024: https://www.eucast.org).
(§2) For combinations containing meropenem as the antibiotic, Sensititre™ FINMER meropenem 64-0.03 μg/mL plates (Thermo Fischer Diagnostics custom plates; YFINMER) were used in most of the experiments. For other antibiotics (and for meropenem whenever a higher start concentration than 64 μg/mL was needed) sterile clear round bottom polystyrene (non-treated) 96-well microplates (Corning 3788) were used for making serial two-fold dilutions of the antibiotic in cation-adjusted Mueller Hinton II broth (caMHB; Thermo Scientific, T3462, containing 29.4 μM Zn^2+ or MILLIPORE, 90922-500G, containing 5.6 μM Zn^2+), across the columns of the microtiter plate (128-0.06 μg/mL; columns 1-12).
The checkerboard plates were all modified by adding a serine β-lactamase inhibitor (sBLI) at a fixed concentration of 16 μg/mL. Additionally, the zinc chelator was added at various fixed concentrations. […]

[2] = tested on: Acinetobacter baumannii ST15; experiment: MIC determination, fixed concentration of sBLI (Examples 11-18); details: NDM-1, OXA-51, ADC-263, caMHB
Description: as §1, §2
The checkerboard plates were all modified by adding a serine β-lactamase inhibitor (sBLI) at a fixed concentration of 16 μg/mL. Additionally, the zinc chelator was added at various fixed concentrations. Samples were mixed so that all plates contained a control containing antibiotic alone (no sBLI, no zinc chelator), a sample containing antibiotic and sBLI (double combination; no zinc chelator), and a sample containing antibiotic, sBLI and zinc chelator (triple combination). All test wells used in each plate contained growth medium (caMHB), and inoculated bacteria at a final inoculum between 3-7×10^5 CFU/mL. […] Synergy for the triple combination (antibiotic, sBLI, and zinc chelator) was defined as when the MIC in any of the rows containing the zinc chelator in combination with antibiotic and sBLI (triple combination), was lower than for antibiotic alone and lower than for the antibiotic and sBLI double combination.
(§3) An X in rows 1~4 in the table indicates growth of the bacterial inoculum, while a blank cell indicates no growth. Concentrations (μg/mL) of MEM are given in row 0. SUL and the zinc chelator were added in fixed concentrations (SUL at 16 μg/mL in rows 2-4, zinc chelator at 16 μg/mL in row 3 and at 8 μg/mL in row 4). As a control, the effect of MEM alone was tested (row 1). All wells contained bacterial growth medium (caMHB, 29.4 μM Zn^2+) and were inoculated with the test bacterium. The grey cells indicate the meropenem MIC.
as §3, with “AMOX” for “MEM”, “amoxicillin” for “meropenem”
Two technical replicates were performed for each sample. An X in rows 1-8 in the table indicates growth of the bacterial inoculum, while a blank cell indicates no growth. Concentrations (μg/mL) of AMP are given in row 0. SUL and the zinc chelator were added in fixed concentrations (SUL at 16 μg/mL in rows 3-8, zinc chelator at 16 μg/mL in rows 5-6 and at 8 μg/mL in rows 7-8). As a control, the effect of AMP alone was tested (rows 1-2). All wells contained bacterial growth medium (caMHB, 29.4 μM Zn^2+) and were inoculated with the test bacterium. […]

bacterial strain = experiment: MIC checkerboard assays, Examples 2 to 30 overall
Description: Thus, in most of the experiments, a Fractional Inhibitory Concentration Index (FICI) could not be calculated, and the conclusion of synergy was made through visual reading of the bacterial growth in the wells in the combination experiment.
as §1
Sterile clear round bottom polystyrene (non-treated) 96-well microplates (Corning 3788) were used for making serial two-fold dilutions of the antibiotic and the sBLI in cation-adjusted Mueller Hinton II broth (caMHB; Thermo Scientific, T3462, containing 29.4 μM Zn^2+), across the columns of the microtiter plate (256-0.06 μg/mL; columns 1-12). The checkerboard plates were all made by keeping the sBLI at a fixed ratio relative to antibiotic (absolute concentrations of each, in μg/mL) to all wells containing sample in each plate. Additionally, a set of samples was included in each test plate, where the zinc chelator was added, at various fixed concentrations, of 16 μg/mL, 8 μg/mL and/or 4 μg/mL (as specified in each Example). All sample wells contained growth medium (caMHB), and inoculated bacteria at a final inoculum between 3-7×10^5 CFU/mL. […]

**Q.** `CN(C[C@H](O)[C@@H](O)[C@H](O)[C@H](O)CO)C(=O)c1ccc(CN(Cc2ccccn2)Cc2ccccn2)nc1` [zinc chelator] was tested. Which “Synergy with the zinc chelator observed at concentration” value (shortened to “Synergy with the zinc chelator observed”) [1] did it give?
**A.** The value was 16 µg/mL.

**Q.** What about the “Synergy with the zinc chelator observed” value ([2]; Example 11, with MEM and SUL 16 μg/mL, 29.4 μM Zn2+) of the same molecule?
**A.** The value was 16 µg/mL.

**Q.** What about the “Synergy with the zinc chelator observed” value ([2]; Example 12, with AMOX and SUL 16 μg/mL, 29.4 μM Zn2+) of the same molecule?
**A.** The value was 16 µg/mL.

**Q.** What about the “Synergy with the zinc chelator observed” value ([2]; Example 13, with AMP and SUL 16 μg/mL, 29.4 μM Zn2+) of the same molecule?
**A.** Its value is 16 µg/mL.

**Q.** And the “Synergy with the zinc chelator observed” value ([2]; Example 14, with PIP and TAZ 16 μg/mL, 29.4 μM Zn2+)?
**A.** Its value is 16 µg/mL and 8 µg/mL.

**Q.** And the “Synergy with the zinc chelator observed” value ([2]; Example 18, with PIP and TAZ 16 μg/mL, 5.6 μM Zn2+)?
**A.** The value was 16 µg/mL and 8 µg/mL.

**Q.** What about the intrinsic antibiotic effect (bacterial strain) of the same molecule?
**A.** Its intrinsic antibiotic effect is “neither the zinc chelator nor the sBLI have intrinsic antibiotic effect”.
